Measurements reported in patent US8575338B2, “Pyrimidine, pyridine and triazine derivatives as maxi-K channel openers” (Mitsubishi Tanabe Pharma Corporation, priority 2008, dated 2013).

Each molecule was assayed against T1, human BKαβ1 channels (Homo sapiens, UniProt Q12791) (assay: BK current in CHO cells expressing human BKαβ1 (PatchXpress whole-cell patch clamp), EC100). Conditions: drug concentration causing 100% increase of BK current.
T1 construct: expressed in transfected cells; host or cells: CHO cells (G418 and hygromycin selection)
T1 sequence (Q12791 whole entry): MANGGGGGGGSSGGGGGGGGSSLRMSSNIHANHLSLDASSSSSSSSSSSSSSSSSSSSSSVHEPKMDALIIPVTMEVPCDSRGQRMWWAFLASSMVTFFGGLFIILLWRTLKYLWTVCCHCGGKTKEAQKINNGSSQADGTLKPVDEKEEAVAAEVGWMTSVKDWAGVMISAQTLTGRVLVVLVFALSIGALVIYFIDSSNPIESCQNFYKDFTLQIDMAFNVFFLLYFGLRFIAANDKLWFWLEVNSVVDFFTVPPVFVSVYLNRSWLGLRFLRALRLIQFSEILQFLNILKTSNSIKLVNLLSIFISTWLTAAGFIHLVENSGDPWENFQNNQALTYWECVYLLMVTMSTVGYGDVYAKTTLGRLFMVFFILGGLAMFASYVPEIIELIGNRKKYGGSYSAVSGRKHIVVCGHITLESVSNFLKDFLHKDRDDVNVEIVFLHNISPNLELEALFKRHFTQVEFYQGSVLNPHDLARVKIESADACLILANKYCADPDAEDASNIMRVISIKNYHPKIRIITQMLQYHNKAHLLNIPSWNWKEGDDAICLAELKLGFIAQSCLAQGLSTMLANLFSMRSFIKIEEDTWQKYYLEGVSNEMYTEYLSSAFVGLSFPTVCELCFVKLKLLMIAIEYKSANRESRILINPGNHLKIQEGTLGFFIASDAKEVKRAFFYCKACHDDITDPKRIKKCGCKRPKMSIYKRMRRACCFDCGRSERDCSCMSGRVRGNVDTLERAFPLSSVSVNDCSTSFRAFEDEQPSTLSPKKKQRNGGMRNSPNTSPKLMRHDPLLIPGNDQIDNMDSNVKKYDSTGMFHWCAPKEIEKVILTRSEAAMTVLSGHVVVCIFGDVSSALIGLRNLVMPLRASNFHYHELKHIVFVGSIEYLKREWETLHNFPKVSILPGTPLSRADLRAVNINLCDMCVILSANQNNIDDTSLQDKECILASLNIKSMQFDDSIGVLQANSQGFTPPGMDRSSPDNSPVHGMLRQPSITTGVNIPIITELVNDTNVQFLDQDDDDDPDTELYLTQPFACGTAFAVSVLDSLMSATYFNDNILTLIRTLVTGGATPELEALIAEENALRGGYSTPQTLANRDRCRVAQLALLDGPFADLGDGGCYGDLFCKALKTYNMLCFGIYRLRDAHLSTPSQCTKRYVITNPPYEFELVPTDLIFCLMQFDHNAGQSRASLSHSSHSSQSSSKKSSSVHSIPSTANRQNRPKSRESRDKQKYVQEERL
T1 sequence (Q16558 whole entry partner): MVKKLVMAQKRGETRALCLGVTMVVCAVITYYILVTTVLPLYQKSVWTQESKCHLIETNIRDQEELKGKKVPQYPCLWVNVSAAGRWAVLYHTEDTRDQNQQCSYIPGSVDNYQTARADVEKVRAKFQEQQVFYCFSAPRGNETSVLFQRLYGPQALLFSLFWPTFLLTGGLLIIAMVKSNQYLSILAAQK
Type: cell-based
Method: Methods for Testing Compounds on Human BKαβ1 Channels Expressed Cho Cells
CHO cells expressing human BKαβ1 were cultured in T75 or 6 well cell culture cluster. Medium: DMEM/F12+10% FBS+0.5 mg/mL G418/genetecin+0.1 mg/mL Hygromycin. Split cells every 3-4 days at 80-90% confluence. Use cells for experiments 60-72 hrs after re-passage and at ˜90% confluence.
Trypsin solution (0.05% Trypsin+0.1% EDTA), Ca^2+ free PBS and culture medium were warmed to 37° C. Inspect the T75 flask for cell confluence. Remove culture medium and add warm Ca^2+ free PBS to wash cells. Remove Ca^2+ free PBS and add warm Trypsin solution. Put the T75 flask back to 37° C. incubator for about 4.5 minutes. Stop Trypsin activity by adding culture medium. Spin the cells down. Suspend cells in 120-160 μL external solution for BK current recording and use the cells as soon as possible.
PatchXpress Sealchip 16 electrodes (AVIVA Biosciences) and PatchXpress 7000A (Axon Instruments, Inc) were used for BK current recording. Flat bottom 1.5 mL glass vial (HiPep Laboratories) were used for containing external solutions (±compounds). The holes in the sealchip (equivalent to patch electrode) had resistance about 1.5 MΩ. Cell membrane capacitance was compensated and access resistance was also compensated by 40%. Voltage-clamp protocol: Holding voltage=0 mV. Record BK current during 200-ms steps between +80 to +120 mV in 10 mV increments and 2 sec inter-pulse interval. On-line digital leak subtraction was performed by a P/−4 procedure. After whole-cell configuration was established, 2 minute was used to optimize access resistance. Then the chamber was washed with control bath solution for 1 minute to remove excessive cells. Control bath solution was added with robotic pipette and control BK current was recorded after 1 minute equilibrium time. For each drug concentration, 45 μL drug solution was added three times with “suction before adding” mode which left old solution. For each drug addition, 1 minute equilibrium time was given. BK current was measured at each drug concentrations (usually within 3.5 minutes after first drug addition). Calculate % change of BK current at the voltage step when the control BK current first exceeding 200 pA. If the control BK current was less than 200 pA at 120 mV, the cell was not used. % changes were calculated as 100*(Id−Ic)/Ic, where Id was the current amplitude in the presence of drug and Ic was the control current amplitude.
EC100 was defined as the drug concentration causing 100% increase of BK current calculated by the method described above. EC100 was determined by the data points just below and above 100%. % Increase of BK current was plotted against log [drug concentration]. A straight line connected two data points flanking 100%. From this straight line, the concentration corresponding to 100% increase of BK current was determined as EC100.
Compounds were dissolved in DMSO to make 10 mM stock solutions. Subsequent dilutions were made with external solution. The testing drug concentrations were 0.1, 0.3, 1, 3 and 10 μM depending on the potency of compounds. The highest DMSO concentration was 0.1%. External solution (in mM): 140 NaCl, 4 KCl, 1 MgCl2, 2 CaCl2, 10 Glucose, 10 HEPES; pH=7.4 with NaOH. Internal solution (in mM): 140 KCl, 5 EGTA, 1 MgCl2, 5 MgATP, 0.2 CaCl2, 5 HEPES; pH=7.2 with KOH.
Molecule `COC[C@@H]1CCCN1c1nc(OC(C)(C)C(=O)[O-])nc(-c2ccc(Cl)c(F)c2)n1.[Na+]` [Example 6] has an EC100 of 1.61 µM.
`CC(C)(Oc1cc(N2CCC(C(C)(C)O)CC2)nc(-c2ccc(Cl)c(F)c2)n1)C(=O)[O-].[Na+]` [Example 16] gave an EC100 of 1.91 µM.
In the case of `COCC1CCN(c2cc(OC(C)(C)C(=O)[O-])nc(-c3ccc(Cl)c(F)c3)n2)CC1.[Na+]` [Example 17], the EC100 is reported as 2.47 µM.
`CCC(CC)(Oc1cc(N2CCC(OC)CC2)nc(-c2ccc(Cl)c(F)c2)n1)C(=O)[O-].[Na+]` [Example 33] showed an EC100 of 1.75 µM.
With `COC[C@@H]1CCCN1c1cc(OC2(C(=O)[O-])CC2)nc(-c2ccc(Cl)c(F)c2)n1.[Na+]` [Example 36] the EC100 was 0.59 µM.
With `COC[C@H]1CCCN1c1cc(OC2(C(=O)[O-])CC2)nc(-c2ccc(Cl)c(F)c2)n1.[Na+]` [Example 37] the EC100 was 0.69 µM.
In the case of `COCC1CCN(c2cc(OC3(C(=O)[O-])CC3)nc(-c3ccc(Cl)c(F)c3)n2)CC1.[Na+]` [Example 39], the EC100 is reported as 0.25 µM.
Work on `O=C([O-])C1(Oc2cc(NC3CCCC3)nc(-c3ccc(Cl)c(F)c3)n2)CC1.[Na+]` [Example 47] yielded an EC100 of 0.33 µM.
Molecule `CCO[C@H]1CCCN(c2cc(OC3(C(=O)[O-])CC3)nc(-c3ccc(Cl)c(F)c3)n2)C1.[Na+]` [Example 50] has an EC100 of 1.05 µM.
`CCOC1CCN(c2cc(OC3(C(=O)[O-])CC3)nc(-c3ccc(Cl)c(F)c3)n2)C1.[Na+]` (stereo not drawn) [Example 51] showed an EC100 of 1.09 µM.
In the case of `COC[C@@H]1CCCN1c1cc(OC2(C(=O)[O-])CCCC2)nc(-c2ccc(Cl)c(F)c2)n1.[Na+]` [Example 54], the EC100 is reported as 1.31 µM.
`COC[C@@H]1CCCN1c1cc(OC2(C(=O)[O-])CC2)nc(-c2cccc(C(F)(F)F)c2)n1.[Na+]` [Example 62] gave an EC100 of 1.5 µM.
For `COC[C@@H]1CCCN1c1cc(OC2(C(=O)[O-])CC2)nc(-c2ccc(C(F)(F)F)cc2)n1.[Na+]` [Example 63], the EC100 was 1.28 µM.
`CCOc1cccc(-c2nc(OC3(C(=O)[O-])CC3)cc(N3CCC[C@H]3COC)n2)c1.[Na+]` [Example 65] was tested, and the EC100 was 1.43 µM.
Work on `COC[C@@H]1CCCN1c1cc(OC2(C(=O)[O-])CC2)nc(-c2ccc(Cl)s2)n1.[Na+]` [Example 67] yielded an EC100 of 1.92 µM.
For `COCC1CCN(c2cc(OC3(C(=O)[O-])CC3)nc(-c3ccc(Cl)s3)n2)CC1.[Na+]` [Example 69], the EC100 was 2.56 µM.
Molecule `CCCOC1CCN(c2cc(OC3(C(=O)[O-])CC3)nc(-c3ccc(F)cc3)n2)CC1.[Na+]` [Example 78] has an EC100 of 1.41 µM.
`COc1ccc(C(C)=O)cc1-c1cc(OC2(C(=O)[O-])CC2)nc(-c2ccc(Cl)c(F)c2)n1.[Na+]` [Example 199] was tested, and the EC100 was 1.14 µM.
Work on `COc1cccc(-c2cc(OC(C)(C)C(=O)[O-])nc(-c3ccc(Cl)c(F)c3)c2)c1.[Na+]` [Example 206] yielded an EC100 of 0.68 µM.
In the case of `COc1ccccc1-c1nc(OC(C)(C)C(=O)[O-])nc(-c2ccc(Cl)c(F)c2)n1.[Na+]` [Example 207], the EC100 is reported as 1.91 µM.
`COc1cc(F)ccc1-c1cc(OC2(C(=O)[O-])CC2)nc(-c2ccc(F)c(F)c2)n1.[Na+]` [Example 208] showed an EC100 of 0.38 µM.
With `COCCOc1cc(F)ccc1-c1cc(OC2(C(=O)[O-])CC2)nc(-c2ccc(Cl)c(F)c2)n1.[Na+]` [Example 209] the EC100 was 0.27 µM.
Work on `CC(C)(Oc1cc(-c2ccc(F)cc2)nc(-c2ccc(Cl)c(F)c2)n1)C(=O)[O-].[Na+]` [Example 474] yielded an EC100 of 0.36 µM.
Molecule `COCc1ccc(-c2cc(OC(C)(C)C(=O)[O-])nc(-c3ccc(Cl)c(F)c3)n2)cc1.[Na+]` [Example 485] has an EC100 of 1.83 µM.
Work on `COc1nc(-c2cc(OC(C)(C)C(=O)[O-])nc(-c3ccc(Cl)c(F)c3)n2)cs1.[Na+]` [Example 506] yielded an EC100 of 1.38 µM.
Work on `O=C([O-])C1(Oc2cc(-c3ccc(F)cc3)nc(-c3ccc(Cl)c(F)c3)n2)CC1.[Na+]` [Example 512] yielded an EC100 of 0.14 µM.
In the case of `COc1ccc(-c2cc(OC3(C(=O)[O-])CC3)nc(-c3ccc(Cl)c(F)c3)n2)cc1F.[Na+]` [Example 518], the EC100 is reported as 0.1 µM.
In the case of `COc1cc(F)cc(-c2cc(OC3(C(=O)[O-])CC3)nc(-c3ccc(Cl)c(F)c3)n2)c1.[Na+]` [Example 519], the EC100 is reported as 0.12 µM.
`COc1ccc(F)cc1-c1cc(OC2(C(=O)[O-])CC2)nc(-c2ccc(Cl)c(F)c2)n1.[Na+]` [Example 520] showed an EC100 of 0.32 µM.
In the case of `COc1cc(-c2cc(OC3(C(=O)[O-])CC3)nc(-c3ccc(Cl)c(F)c3)n2)ccc1F.[Na+]` [Example 522], the EC100 is reported as 0.39 µM.
Work on `COCc1cccc(-c2cc(OC3(C(=O)[O-])CC3)nc(-c3ccc(Cl)c(F)c3)n2)c1.[Na+]` [Example 526] yielded an EC100 of 0.36 µM.
Work on `O=C([O-])C1(Oc2cc(-c3ccc4c(c3)OCCO4)nc(-c3ccc(Cl)c(F)c3)n2)CC1.[Na+]` [Example 529] yielded an EC100 of 0.12 µM.
Work on `CCOc1ncccc1-c1cc(OC2(C(=O)[O-])CC2)nc(-c2ccc(Cl)c(F)c2)n1.[Na+]` [Example 533] yielded an EC100 of 0.5 µM.
In the case of `N#Cc1cccc(-c2cc(OC3(C(=O)[O-])CC3)nc(-c3ccc(Cl)c(F)c3)n2)c1.[Na+]` [Example 548], the EC100 is reported as 0.29 µM.
Work on `N#Cc1ccc(-c2cc(OC3(C(=O)[O-])CC3)nc(-c3ccc(Cl)c(F)c3)n2)cc1.[Na+]` [Example 549] yielded an EC100 of 0.33 µM.
Molecule `O=C([O-])C1(Oc2cc(-c3ccccc3O)nc(-c3ccc(Cl)c(F)c3)n2)CC1.[Na+]` [Example 552] has an EC100 of 0.2 µM.
With `CCOc1cccc(-c2cc(OC3(C(=O)[O-])CC3)nc(-c3ccc(Cl)c(F)c3)n2)c1.[Na+]` [Example 553] the EC100 was 0.1 µM.
For `O=C([O-])C1(Oc2cc(-c3cccc(C(F)(F)F)c3)nc(-c3ccc(Cl)c(F)c3)n2)CC1.[Na+]` [Example 555], the EC100 was 0.3 µM.
`O=C([O-])C1(Oc2cc(-c3cccc(C(F)(F)F)c3)nc(-c3ccc(Cl)c(F)c3)n2)CC1.[Na+]` [Example 556] was tested, and the EC100 was 0.03 µM.
`O=C([O-])C1(Oc2cc(-c3ccc(F)cc3O)nc(-c3ccc(Cl)c(F)c3)n2)CC1.[Na+]` [Example 558] showed an EC100 of 0.04 µM.
`O=C([O-])C1(Oc2cc(-c3nccs3)nc(-c3ccc(Cl)c(F)c3)n2)CC1.[Na+]` [Example 559] showed an EC100 of 0.36 µM.
For `O=C([O-])C1(Oc2cc(-c3cncc(Cl)c3)nc(-c3ccc(Cl)c(F)c3)n2)CC1.[Na+]` [Example 563], the EC100 was 0.01 µM.
Work on `COc1ncccc1-c1cc(OC2(C(=O)[O-])CCCC2)nc(-c2ccc(Cl)c(F)c2)n1.[Na+]` [Example 566] yielded an EC100 of 0.56 µM.
In the case of `O=C([O-])C1(Oc2cc(-c3nccs3)nc(-c3ccc(Cl)c(F)c3)n2)CCCC1.[Na+]` [Example 570], the EC100 is reported as 2.15 µM.
Molecule `COc1ccc(F)c(-c2cc(OC3(C(=O)[O-])CCOCC3)nc(-c3ccc(Cl)c(F)c3)n2)c1.[Na+]` [Example 572] has an EC100 of 1.07 µM.
In the case of `COc1cc(F)cc(-c2cc(OC3(C(=O)[O-])CCOCC3)nc(-c3ccc(Cl)c(F)c3)n2)c1.[Na+]` [Example 573], the EC100 is reported as 0.05 µM.
In the case of `COc1cc(F)ccc1-c1cc(OC2(C(=O)[O-])CC2)nc(-c2cccc(F)c2)n1.[Na+]` [Example 613], the EC100 is reported as 0.12 µM.
In the case of `COCCN(CC(=O)O)c1cc(-c2ccc(F)cc2)nc(-c2ccc(Cl)c(F)c2)n1` [Example 646], the EC100 is reported as 1.23 µM.
Molecule `O=C([O-])C1(Oc2cc(N3CCN(c4ncccn4)CC3)nc(-c3ccc(Cl)c(F)c3)n2)CC1.[Na+]` [Example 664] has an EC100 of 1.29 µM.
`O=C(O)C1(Nc2cc(-c3ccc(F)cc3)nc(-c3ccc(Cl)c(F)c3)n2)CC1` [Example 706] gave an EC100 of 0.16 µM.
For `CCOc1cc(F)ccc1-c1cc(OC2(C(=O)O)CC2)nc(-c2ccc(F)cc2)n1` [Example 709], the EC100 was 0.12 µM.
`CC(C)Oc1cc(F)ccc1-c1cc(OC2(C(=O)O)CC2)nc(-c2ccc(F)cc2)n1` [Example 710] showed an EC100 of 0.14 µM.
Molecule `O=C(O)C1(Oc2cc(-c3ccc(C(F)(F)F)nc3)nc(-c3ccc(Cl)c(F)c3)n2)CC1` [Example 888] has an EC100 of 0.48 µM.
With `CCc1ccc(F)cc1-c1cc(OC2(C(=O)O)CC2)nc(-c2ccc(F)cc2)n1` [Example 892] the EC100 was 0.55 µM.
